Experimental data: patent publication US20230056205A1, “SUBSTITUTED 4,6-DIHYDROSPIRO[[1,2,3]TRIAZOLO[4,5-B]PYRIDINE-7,3'-INDOLINE]-2',5(3H)-DIONE ANALOGUES” (The Board of Regents of The University of Texas System, priority 2019, published 2023)

Columns and labels:
[1] = system: DENV-1 replicon; assay: Luciferase reporter replicon-based screening, DENV-1; type: cell-based, DENV-1 (strain WestPac); conditions: Dengue virus, DENV1, Huh-7, 48 h, read-out: EC50 DENV-1
How it was run: (§1)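 Huh7 cells carrying Renilla luciferase/neo replicons of DENV-1 (WestPac), DENV-2 (NGC), DENV-3 (D3MY05-34640) or DENV-4 (D4MY01-22713), treated with 2-fold compound dilutions for 48 h at 37 °C in duplicate. Live-cell luciferase read; EC50 by four-parameter logistic fit.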

[2] = system: DENV-2 replicon; assay: Luciferase reporter replicon-based screening, DENV-2; type: cell-based, DENV-2 (New Guinea C strain, NGC); conditions: Dengue virus, DENV2, Huh-7, 48 h, read-out: EC50 DENV-2, Huh7 cells stably expressing DENV-2 replicon, 48 h
How it was run: as §1

[3] = system: DENV-3 replicon; assay: Luciferase reporter replicon-based screening, DENV-3; type: cell-based, DENV-3 (strain D3MY05-34640); conditions: Dengue virus, DENV3, Huh-7, 48 h, read-out: EC50 DENV-3, Huh7 cells stably expressing DENV-3 replicon, 48 h
How it was run: as §1

[4] = system: DENV-4 replicon; assay: Luciferase reporter replicon-based screening, DENV-4; type: cell-based, DENV-4 (strain D4MY01-22713); conditions: Dengue virus, DENV4, Huh-7, 48 h, read-out: EC50 DENV-4
How it was run: as §1

[5] = Cytotoxicity assay (CellTiter-Glo); type: cell-based; conditions: human, Huh7 cells stably expressing DENV-2 replicon
How it was run: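 Huh7 or Huh7 replicon cells, seeded overnight at 37 °C, exposed to 2-fold serial dilutions of compound for 48 h in duplicate. Viability by CellTiter-Glo, normalised to 0.45% DMSO wells (100%); CC50 by four-parameter logistic regression.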

[6] = system: P12 resistant DENV-2 viruses (NS4B V63M or V63L); type: cell-based, DENV-2 strain NGC; conditions: after twelve rounds of selection with compound 63, selections III to VI, Huh7 cells

Structure (SMILES)	EC50 [1] [nM]	EC50 [2] [nM]	EC50 [3] [nM]	EC50 [4] [nM]	CC50 at 48 h [5] [nM]	increase of EC50 of resistant viruses (resistance fold vs P0 DENV-2) [6] [folds]
C[C@@H](c1ccc(Cl)cc1)n1nnc2c1NC(=O)C[C@]21C(=O)N(CCCBr)c2ccc(Cl)cc21 [Compound 47, (R)-1'-(3-Bromopropyl)-5'-chloro-3-((S)-1-(4-chlorophenyl)ethyl)-4,6-dihydrospiro[[1,2,3]triazolo[4,5-b]pyridine-7,3'-indoline]-2',5(3H)-dione]	2400	250	76	3200	> 10000	
C[C@@H](c1ccc(Cl)cc1)n1nnc2c1NC(=O)C[C@]21C(=O)N(CCN2CCOCC2)c2ccc(Cl)cc21 [Compound 55, (R)-5'-chloro-3-((S)-1-(4-chlorophenyl)ethyl)-1'-(2-morpholinoethyl)-4,6-dihydrospiro[[1,2,3]triazolo[4,5-b]pyridine-7,3'-indoline]-2',5(3H)-dione]	> 5000	75	17	> 5000	> 10000	
C[C@@H](c1ccc(Cl)cc1)n1nnc2c1NC(=O)C[C@]21C(=O)N(CCN2CCCCC2)c2ccc(Cl)cc21 [Compound 56, (R)-5'-Chloro-3-((S)-1-(4-chlorophenyl)ethyl)-1'-(2-(piperidin-1-yl)ethyl)-4,6-dihydrospiro[[1,2,3]triazolo[4,5-b]pyridine-7,3'-indoline]-2',5(3H)-dione]	> 5000	74	5	> 5000	> 10000	
C[C@@H](c1ccc(Cl)cc1)n1nnc2c1NC(=O)C[C@]21C(=O)N(CCN(C)C)c2ccc(Cl)cc21 [Compound 57, (R)-5'-Chloro-3-((S)-1-(4-chlorophenyl)ethyl)-1'-(2-(dimethylamino)ethyl)-4,6-dihydrospiro[[1,2,3]triazolo[4,5-b]pyridine-7,3'-indoline]-2',5(3H)-dione]	> 5000	25	2	> 5000	> 10000	
C[C@@H](c1ccc(Cl)cc1)n1nnc2c1NC(=O)C[C@]21C(=O)N(CCN2CCCC2)c2ccc(Cl)cc21 [Compound 58, (R)-5'-Chloro-3-((S)-1-(4-chlorophenyl)ethyl)-1'-(2-(pyrrolidin-1-yl)ethyl)-4,6-dihydrospiro[[1,2,3]triazolo[4,5-b]pyridine-7,3'-indoline]-2',5(3H)-dione]	> 5000	38	6	> 5000	> 10000	
C[C@@H](c1ccc(Cl)cc1)n1nnc2c1NC(=O)C[C@]21C(=O)N(CCN2CCN(C)CC2)c2ccc(Cl)cc21 [Compound 59, (R)-5'-Chloro-3-((S)-1-(4-chlorophenyl)ethyl)-1'-(2-(4-methylpiperazin-1-yl)ethyl)-4,6-dihydrospiro[[1,2,3]triazolo[4,5-b]pyridine-7,3'-indoline]-2',5(3H)-dione]	> 5000	300	30	> 5000	> 10000	
C[C@@H](c1ccc(Cl)cc1)n1nnc2c1NC(=O)C[C@]21C(=O)N(CCN(C)CCS(C)(=O)=O)c2ccc(Cl)cc21 [Compound 60, (R)-5'-Chloro-3-((S)-1-(4-chlorophenyl)ethyl)-1'-(2-(methyl(2-(methylsulfonyl)ethyl)amino)ethyl)-4,6-dihydrospiro[[1,2,3]triazolo[4,5-b]pyridine-7,3'-indoline]-2',5(3H)-dione]	> 5000	77	18	> 5000	> 10000	
C[C@@H](c1ccc(Cl)cc1)n1nnc2c1NC(=O)C[C@]21C(=O)N(CCN2CCC2)c2ccc(Cl)cc21 [Compound 61, (R)-1'-(2-(Azetidin-1-yl)ethyl)-5'-chloro-3-((S)-1-(4-chlorophenyl)ethyl)-4,6-dihydrospiro[[1,2,3]triazolo[4,5-b]pyridine-7,3'-indoline]-2',5(3H)-dione]	> 5000	67	7	> 5000	> 10000	
CNCCN1C(=O)[C@]2(CC(=O)Nc3c2nnn3[C@@H](C)c2ccc(Cl)cc2)c2cc(Cl)ccc21 [Compound 62, (R)-5'-chloro-3-((S)-1-(4-chlorophenyl)ethyl)-1'-(2-(methylamino)ethyl)-4,6-dihydrospiro[[1,2,3]triazolo[4,5-b]pyridine-7,3'-indoline]-2',5(3H)-dione]	> 5000	120	22	> 5000	> 10000	
C[C@@H](c1ccc(Cl)cc1)n1nnc2c1NC(=O)C[C@]21C(=O)N(CCCN(C)C)c2ccc(Cl)cc21 [Compound 63, (R)-5'-Chloro-3-((S)-1-(4-chlorophenyl)ethyl)-1'-(3-(dimethylamino)propyl)-4,6-dihydrospiro[[1,2,3]triazolo[4,5-b]pyridine-7,3'-indoline]-2',5(3H)-dione]	> 5000	25	1	> 5000	> 10000	> 100
C[C@@H](c1ccc(Cl)cc1)n1nnc2c1NC(=O)C[C@]21C(=O)N(CCCN2CCCCC2)c2ccc(Cl)cc21 [Compound 64, (R)-5'-Chloro-3-((S)-1-(4-chlorophenyl)ethyl)-1'-(3-(piperidin-1-yl)propyl)-4,6-dihydrospiro[[1,2,3]triazolo[4,5-b]pyridine-7,3'-indoline]-2',5(3H)-dione]	> 5000	130	12	> 5000	> 10000	
C[C@@H](c1ccc(Cl)cc1)n1nnc2c1NC(=O)C[C@]21C(=O)N(CCCN2CCOCC2)c2ccc(Cl)cc21 [Compound 65, (R)-5'-Chloro-3-((S)-1-(4-chlorophenyl)ethyl)-1'-(3-morpholinopropyl)-4,6-dihydrospiro[[1,2,3]triazolo[4,5-b]pyridine-7,3'-indoline]-2',5(3H)-dione]	> 5000	76	5	> 5000	> 10000	
C[C@@H](c1ccc(Cl)cc1)n1nnc2c1NC(=O)C[C@]21C(=O)N(CCCCN(C)C)c2ccc(Cl)cc21 [Compound 66, (R)-5'-Chloro-3-((S)-1-(4-chlorophenyl)ethyl)-1'-(4-(dimethylamino)butyl)-4,6-dihydrospiro[[1,2,3]triazolo[4,5-b]pyridine-7,3'-indoline]-2',5(3H)-dione]	> 5000	190	38	> 5000	> 10000	
C[C@@H](c1ccc(Cl)cc1)n1nnc2c1NC(=O)C[C@]21C(=O)N(CCCCN2CCCCC2)c2ccc(Cl)cc21 [Compound 67, (R)-5'-Chloro-3-((S)-1-(4-chlorophenyl)ethyl)-1'-(4-(piperidin-1-yl)butyl)-4,6-dihydrospiro[[1,2,3]triazolo[4,5-b]pyridine-7,3'-indoline]-2',5(3H)-dione]	> 5000	350	78	> 5000	> 10000	
C[C@@H](c1ccc(Cl)cc1)n1nnc2c1NC(=O)C[C@]21C(=O)N(CCCCCCN(C)C)c2ccc(Cl)cc21 [Compound 68, (R)-5'-Chloro-3-((S)-1-(4-chlorophenyl)ethyl)-1'-(6-(dimethylamino)hexyl)-4,6-dihydrospiro[[1,2,3]triazolo[4,5-b]pyridine-7,3'indoline]-2',5(3H)-dione]	1500	900	66	> 5000	> 10000	
C[C@@H](c1ccc(Cl)cc1)n1nnc2c1NC(=O)C[C@]21C(=O)N(CCCCCCCCN(C)C)c2ccc(Cl)cc21 [Compound 69, (R)-5'-Chloro-3-((S)-1-(4-chlorophenyl)ethyl)-1'-(8-(dimethylamino)octyl)-4,6-dihydrospiro[[1,2,3]triazolo[4,5-b]pyridine-7,3'-indoline]-2',5(3H)-dione]	> 5000	490	42	> 5000	> 10000	
C[C@@H](c1ccc(Cl)cc1)n1nnc2c1NC(=O)C[C@]21C(=O)N(CCCCCCCCCCN(C)C)c2ccc(Cl)cc21 [Compound 70, (R)-5'-Chloro-3-((S)-1-(4-chlorophenyl)ethyl)-1'-(10-(dimethylamino)decyl)-4,6-dihydrospiro[[1,2,3]triazolo[4,5-b]pyridine-7,3'indoline]-2',5(3H)-dione]	2700	3500	98	3500	> 10000	
